ChEMBL document CHEMBL1135473, “Synthesis of (+)-cis-N-(4-isothiocyanatobenzyl)-N-normetazocine, an isothiocyanate derivative of N-benzylnormetazocine as acylant agent for the sigma(1) receptor” (J Med Chem, 2002)

Tests used:
[1] = target: Sigma non-opioid intracellular receptor 1 (Homo sapiens) (UniProt Q99720); details: Cavia porcellus; 200 nM
[2] = target: Sigma non-opioid intracellular receptor 1 (Homo sapiens) (UniProt Q99720); details: Cavia porcellus; 0.1 uM
[3] = target: Sigma non-opioid intracellular receptor 1 (Homo sapiens) (UniProt Q99720); details: Cavia porcellus; 1 uM
[4] = target: Sigma non-opioid intracellular receptor 1 (Homo sapiens) (UniProt Q99720); details: Cavia porcellus; 0.1 uM; remark: listed apart in the source
[5] = target: Sigma non-opioid intracellular receptor 1 (Homo sapiens) (UniProt Q99720); details: Cavia porcellus; 0.1 uM; remark: listed apart in the source
Description: Maximum binding capacity against Sigma opioid receptor type 2 at 0.1 uM BNIT

[6] = target: Sigma non-opioid intracellular receptor 1 (Homo sapiens) (UniProt Q99720); details: Cavia porcellus; 0.1 uM; remark: listed apart in the source
Description: Maximum binding capacity against Sigma opioid receptor type 1 at 0.1 uM BNIT

[7] = target: Sigma non-opioid intracellular receptor 1 (Homo sapiens) (UniProt Q99720); details: Cavia porcellus; 5 uM

Sequence of Sigma non-opioid intracellular receptor 1 (Homo sapiens) (Q99720 whole entry): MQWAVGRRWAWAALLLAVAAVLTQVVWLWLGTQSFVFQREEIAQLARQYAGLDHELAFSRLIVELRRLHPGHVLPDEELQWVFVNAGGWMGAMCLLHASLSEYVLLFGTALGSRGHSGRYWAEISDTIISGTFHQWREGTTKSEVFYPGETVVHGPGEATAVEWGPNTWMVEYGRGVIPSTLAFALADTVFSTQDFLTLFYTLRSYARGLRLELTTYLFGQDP

Row | SMILES | Bmax [1] | Kd2 [2] | Bmax [3] | Kd1 [4] | Bmax2 [5] | Bmax1 [6] | Bmax [7]
1 | CC(C)=CCN1CC[C@]2(C)c3cc(O)ccc3C[C@H]1[C@H]2C | 1120 fmol/mg | – | – | – | – | – | –
2 | Cc1ccccc1NC(=N)Nc1ccccc1C | – | 21.4 nM | 1010 fmol/mg | 12.8 nM | 1330 | 674 | 957 fmol/mg
